Results taken from ChEMBL document CHEMBL1150305, “Synthesis and in vitro PDT activity of miscellaneous porphyrins with amino acid and uracil” (2008).

Assay: Photocytotoxicity against human Ec9706 cells after 2.5 hrs irradiation measured after 24 hrs incubation in dark by MTT assay
Type: functional

SMILES | inhibition (INH) [%]
CC(C)(C)OC(=O)N[C@@H](Cc1ccccc1)C(=O)Nc1ccc(-c2c3nc(c(-c4ccc(NC(=O)Cn5cc(F)c(=O)[nH]c5=O)cc4)c4ccc([nH]4)c(-c4ccccc4)c4nc(c(-c5ccccc5)c5ccc2[nH]5)C=C4)C=C3)cc1 | 88.65
O=C(Cn1cc(F)c(=O)[nH]c1=O)Nc1ccc(-c2c3nc(c(-c4ccc(NC(=O)Cn5cc(F)c(=O)[nH]c5=O)cc4)c4ccc([nH]4)c(-c4ccccc4)c4nc(c(-c5ccccc5)c5ccc2[nH]5)C=C4)C=C3)cc1 | 100
N[C@@H](Cc1ccccc1)C(=O)Nc1ccc(-c2c3nc(c(-c4ccc(NC(=O)Cn5cc(F)c(=O)[nH]c5=O)cc4)c4ccc([nH]4)c(-c4ccccc4)c4nc(c(-c5ccccc5)c5ccc2[nH]5)C=C4)C=C3)cc1 | 69.45
Nc1ccc(-c2c3nc(c(-c4ccc(NC(=O)[C@@H](N)Cc5ccccc5)cc4)c4ccc([nH]4)c(-c4ccccc4)c4nc(c(-c5ccccc5)c5ccc2[nH]5)C=C4)C=C3)cc1 | 37.94
CC(C)(C)OC(=O)N[C@@H](Cc1ccccc1)C(=O)Nc1ccc(-c2c3nc(c(-c4ccc(N)cc4)c4ccc([nH]4)c(-c4ccccc4)c4nc(c(-c5ccccc5)c5ccc2[nH]5)C=C4)C=C3)cc1 | 47.21
Nc1ccc(-c2c3nc(c(-c4ccc(NC(=O)Cn5cc(F)c(=O)[nH]c5=O)cc4)c4ccc([nH]4)c(-c4ccccc4)c4nc(c(-c5ccccc5)c5ccc2[nH]5)C=C4)C=C3)cc1 | 97.09
CC(C)(C)OC(=O)N[C@@H](Cc1ccccc1)C(=O)Nc1ccc(-c2c3nc(c(-c4ccc(NC(=O)[C@H](Cc5ccccc5)NC(=O)OC(C)(C)C)cc4)c4ccc([nH]4)c(-c4ccccc4)c4nc(c(-c5ccccc5)c5ccc2[nH]5)C=C4)C=C3)cc1 | 100
Nc1ccc(-c2c3nc(c(-c4ccc(N)cc4)c4ccc([nH]4)c(-c4ccccc4)c4nc(c(-c5ccccc5)c5ccc2[nH]5)C=C4)C=C3)cc1 | 66.6
N[C@@H](Cc1ccccc1)C(=O)Nc1ccc(-c2c3nc(c(-c4ccc(NC(=O)[C@@H](N)Cc5ccccc5)cc4)c4ccc([nH]4)c(-c4ccccc4)c4nc(c(-c5ccccc5)c5ccc2[nH]5)C=C4)C=C3)cc1 | 96.13
